Laboratory results published in patent US20020120098A1, “Enhanced stimulation of erythropoiesis” (priority 1996, published 2002).

Tested on: BFU-E
Test: Colony formation assay (CFA), cord blood LDMNC: BFU-E colonies
Format: cell-based, human
Conditions: for BFU-E progenitor number, fold increase: 2 U/ml Epo, ambient O2, vs vehicle control; for fold increase in BFU-E number over untreated controls (no addition) at 0.2 U/ml Epo / fold increase in BFU-E at 5% O2: 1.0 mg/ml HAo or HEMOLINK; for fold increase in BFU-E number over untreated controls (no addition) at 0.2 U/ml Epo: 250 μM FeCl3; for fold increase in BFU-E at 5% O2: 5% O2, 2 U/ml Epo, relative to untreated controls at ambient O2
Experimental: This technique, referred to as the colony formation assay (CFA), is the most widely used biological assay to identify and enumerate erythroid progenitors present in hematopoietic tissue such as blood and bone marrow. Cell populations containing erythroid progenitors are plated in semi-solid suspensions of methyl cellulose, agar, low melting agarose or related substances in nutrient culture medium containing 1-3 U/ml Epo and 10 ng/ml IL-3 to specifically stimulate erythroid progenitors. Plates are incubated at 37° C. for 14 days during which time the erythroid progenitors form characteristic hemoglobinized (red) colonies. Two distinct but related erythroid progenitors can be distinguished based on colony size and morphology: BFU-E, the most primitive recognizable erythroid progenitor forms large multilobular colonies whereas the more mature CFU-E forms smaller spherical colonies.
Adult hemoglobin was purified according to U.S Pat. Nos. 5,439,591 and 5,545,328 to obtain HAo and HEMOLINK™ was prepared from HAo according to U.S. Pat. No. 5,532,352. Human umbilical cord blood intended for discard was collected from the umbilical vein of placentas immediately postpartum into 10 ml vacutainer tubes containing 143 USP units/ml sodium heparin. Low density mononuclear cells were separated from red blood cells by centrifugation over a 1.077 g/ml density gradient Cells removed from the plasma/density gradient interface were incubated overnight in a tissue culture flask with 10 ml cell culture medium containing 10% fetal bovine serum, and non-adherent LDMNC were further purified with an additional density gradient step. The LDMNC were then plated into colony formation assays (CFA) on the second day of isolation. In the CFA, LDMNC were plated at a density of 1×10^5 cells/ml in Iscoves modified Dulbeccos cell culture medium containing 0.8% methyl-cellulose, 30% fetal bovine serum, 1% bovine serum albumin, 0.1 mM 2-mercaptoethanol and 2 mM L-glutamine. Unless indicated otherwise, under standard CFA conditions 2 U/ml Epo and 10 ng/ml IL-3 are added to the formulation to stimulate hematopoietic progenitor growth, specifically BFU-E, CFU-E and CFU-GM.
Each condition was tested in duplicate in from 2-18 independent experiments. Cultures were maintained in a humidified incubator at 37° C., 5% CO2 and ambient oxygen tensions. The number of hematopoietic progenitors was scored between days 13-15 by counting the number and types of colonies present.
Erythroid progenitor colony formation assays were conducted as described in Example 1 except that cultures were incubated at either ambient oxygen tensions (˜20% O2) or 5% O2. The reduced oxygen tension of 5% O2 approximates the physiological intravascular oxygen tension in mammals. The mean fold increase in cord blood BFU-E, CFU-E and CFU-GM progenitor number at 5% O2 produced by 1.0 mg/ml HAo (15.6 μM; n=11) or HEMOLINK™ (15.6 μM; n=6), 100 μM hemin (n=10), 250 μM FeCl3 (n=6) or no addition (n=17-18), is shown FIG. 2. Results are expressed relative to control cells treated only with respective vehicles and cultured at ambient oxygen tensions (˜20% O2; fold expansion=1.0; *p<0.05, **p<0.01).
Erythroid progenitor colony formation assays were conducted as described in Example 1 except that cultures were initiated in the presence of Epo concentrations ranging from 0-2 U/ml. The mean fold increase in cord blood BFU-E, CFU-E and CFU-GM progenitor number produced by 1.0 mg/ml HAo (15.6 μM; n=9) or HEMOLINK™ (15.6 μM; n=6), 100 μM hemin (n=8), 250 μM FeCl3 (n=6), or no addition (n=9-10) in the presence of reduced Epo concentrations (0.2 U/ml) is shown in FIG. 3. Cultures were maintained at ambient oxygen tensions (˜20% O2) for 14 days. Results are expressed relative to control cells at 2 U/ml Epo treated only with the respective vehicles (solid line at fold expansion=1.0; *p<0.05, **p<0 01). Erythroid progenitor colonies were undetectable in the absence of Epo. […]

| Compound | BFU-E progenitor number, fold increase (dose 1.0 μM) [fold] | BFU-E progenitor number, fold increase (dose 10 μM) [fold] | BFU-E progenitor number, fold increase (dose 250 μM) | fold increase in BFU-E number over untreated controls (no addition) at 0.2 U/ml Epo (0.2 U/ml Epo, ambient O2) [fold] | fold increase in BFU-E at 5% O2 (100 μM hemin) [fold] | BFU-E progenitor number, fold increase (dose 10 μg/ml) [fold] | BFU-E progenitor number, fold increase (dose 100 μg/ml) [fold] | BFU-E progenitor number, fold increase (dose 500 μg/ml) | BFU-E number at 0.2 U/ml Epo compared with untreated controls at 2 U/ml Epo (0.2 U/ml Epo, ambient O2, 100 μM hemin) | reduction of toxicity of ganciclovir to BFU-E (1 mg/ml HEMOLINK plus 0-100 μM ganciclovir) |
| --- | --- | --- | --- | --- | --- | --- | --- | --- | --- | --- |
| [Cl][Fe]([Cl])[Cl] [FeCl3] | 1.2 | 1.4 | *1.7 fold | – | – | – | – | – | – | – |
| HAo: adult human hemoglobin obtained from red blood cells and purified by displacement chromatography; uncross linked product | – | – | – | 3 | ~8 | 1.1 | 1.3 | **1.7 fold | – | – |
| C=CC1=C(C)C2=Cc3c(C=C)c(C)c4[n]3[Fe-2]35([Cl])[n]6c(c(C)c(CCC(=O)O)c6=CC6=[N+]3C(=C4)C(C)=C6CCC(=O)O)=CC1=[N+]25 [hemin] | 0.9 | 1.5 | 2.2 fold | – | ~8 | – | – | – | generated the same number of BFU-E as the untreated controls at 2 U/ml Epo | – |
| HEMOLINK™: chemically crosslinked hemoglobin prepared by treating human hemoglobin with a polyaldehyde (O-raffinose) | – | – | – | 3 | ~8 | – | – | – | – | about 10 fold |
